US20250332266A1, “COMPOUNDS FOR THE DEGRADATION OF EGFR KINASE” (BeiGene Switzerland GmbH, priority 2022, published 2025)

Columns and labels:
[1] = target: T1, EGFR L858R/T790M/C797S (H1975-clone #25) (Homo sapiens, UniProt P00533, C797S/L858R/T790M); test: EGFR degradation, HTRF total-EGFR assay, H1975-clone #25 (LTC); format: cell-based; settings: H1975-clone #25 L858R/T790M/C797S, 16 h treatment
T1 construct: expressed in transfected cells; host or cells: H1975 (clone #25), lentiviral transduction, endogenous EGFR knocked out
T1 sequence (P00533 25-1210 T790M/C797S/L858R): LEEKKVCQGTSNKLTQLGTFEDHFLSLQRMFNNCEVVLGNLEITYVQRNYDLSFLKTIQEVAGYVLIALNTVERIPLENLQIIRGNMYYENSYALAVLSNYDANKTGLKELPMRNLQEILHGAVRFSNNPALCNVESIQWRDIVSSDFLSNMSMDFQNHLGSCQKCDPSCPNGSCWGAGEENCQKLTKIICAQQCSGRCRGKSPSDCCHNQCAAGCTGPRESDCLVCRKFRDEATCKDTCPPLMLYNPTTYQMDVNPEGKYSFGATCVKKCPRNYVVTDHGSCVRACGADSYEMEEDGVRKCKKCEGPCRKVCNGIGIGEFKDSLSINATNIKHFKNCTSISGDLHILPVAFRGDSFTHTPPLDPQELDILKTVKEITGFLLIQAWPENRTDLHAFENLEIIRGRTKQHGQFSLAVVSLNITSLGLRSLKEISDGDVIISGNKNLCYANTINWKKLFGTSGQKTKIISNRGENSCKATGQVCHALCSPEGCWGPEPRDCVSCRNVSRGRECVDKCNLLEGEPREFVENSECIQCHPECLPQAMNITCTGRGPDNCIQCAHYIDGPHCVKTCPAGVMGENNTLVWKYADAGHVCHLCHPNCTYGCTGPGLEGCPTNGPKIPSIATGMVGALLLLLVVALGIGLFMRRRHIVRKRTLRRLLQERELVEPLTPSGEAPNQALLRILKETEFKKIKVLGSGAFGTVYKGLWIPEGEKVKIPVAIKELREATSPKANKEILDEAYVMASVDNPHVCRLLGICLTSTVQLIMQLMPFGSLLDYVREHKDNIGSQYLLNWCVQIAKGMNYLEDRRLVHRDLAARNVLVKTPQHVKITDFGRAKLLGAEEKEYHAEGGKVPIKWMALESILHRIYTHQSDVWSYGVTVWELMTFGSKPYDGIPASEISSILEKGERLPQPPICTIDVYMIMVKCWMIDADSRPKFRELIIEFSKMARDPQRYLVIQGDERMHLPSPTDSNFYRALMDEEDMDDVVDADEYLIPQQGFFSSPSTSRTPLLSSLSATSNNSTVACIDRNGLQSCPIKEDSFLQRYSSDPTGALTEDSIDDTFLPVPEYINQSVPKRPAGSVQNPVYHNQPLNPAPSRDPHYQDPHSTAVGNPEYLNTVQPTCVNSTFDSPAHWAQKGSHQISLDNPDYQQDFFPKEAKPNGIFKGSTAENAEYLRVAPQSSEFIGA
Outline: (§1)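 H1975 clones with endogenous EGFR knocked out and homozygous exogenous EGFR mutants (#28 Del19/T790M/C797S; #25 L858R/T790M/C797S) treated 16 h at 37 °C, 8 doses, 5-fold from 10 μM, 0.2% DMSO. Total EGFR measured by HTRF on lysates, normalised to DMSO controls; DC50 and Dmax from curve fit.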

[2] = target: EGFR Del19/T790M/C797S (H1975-clone #28) (Homo sapiens, UniProt P00533, T790M/C797S, form not given); test: EGFR degradation, HTRF total-EGFR assay, H1975-clone #28 (DTC); format: cell-based; settings: H1975-clone #28 Del19/T790M/C797S, 16 h treatment
Chain of EGFR Del19/T790M/C797S (H1975-clone #28) (P00533 with tags, fused parts or gaps DEL746-750/T790M/C797S, form open): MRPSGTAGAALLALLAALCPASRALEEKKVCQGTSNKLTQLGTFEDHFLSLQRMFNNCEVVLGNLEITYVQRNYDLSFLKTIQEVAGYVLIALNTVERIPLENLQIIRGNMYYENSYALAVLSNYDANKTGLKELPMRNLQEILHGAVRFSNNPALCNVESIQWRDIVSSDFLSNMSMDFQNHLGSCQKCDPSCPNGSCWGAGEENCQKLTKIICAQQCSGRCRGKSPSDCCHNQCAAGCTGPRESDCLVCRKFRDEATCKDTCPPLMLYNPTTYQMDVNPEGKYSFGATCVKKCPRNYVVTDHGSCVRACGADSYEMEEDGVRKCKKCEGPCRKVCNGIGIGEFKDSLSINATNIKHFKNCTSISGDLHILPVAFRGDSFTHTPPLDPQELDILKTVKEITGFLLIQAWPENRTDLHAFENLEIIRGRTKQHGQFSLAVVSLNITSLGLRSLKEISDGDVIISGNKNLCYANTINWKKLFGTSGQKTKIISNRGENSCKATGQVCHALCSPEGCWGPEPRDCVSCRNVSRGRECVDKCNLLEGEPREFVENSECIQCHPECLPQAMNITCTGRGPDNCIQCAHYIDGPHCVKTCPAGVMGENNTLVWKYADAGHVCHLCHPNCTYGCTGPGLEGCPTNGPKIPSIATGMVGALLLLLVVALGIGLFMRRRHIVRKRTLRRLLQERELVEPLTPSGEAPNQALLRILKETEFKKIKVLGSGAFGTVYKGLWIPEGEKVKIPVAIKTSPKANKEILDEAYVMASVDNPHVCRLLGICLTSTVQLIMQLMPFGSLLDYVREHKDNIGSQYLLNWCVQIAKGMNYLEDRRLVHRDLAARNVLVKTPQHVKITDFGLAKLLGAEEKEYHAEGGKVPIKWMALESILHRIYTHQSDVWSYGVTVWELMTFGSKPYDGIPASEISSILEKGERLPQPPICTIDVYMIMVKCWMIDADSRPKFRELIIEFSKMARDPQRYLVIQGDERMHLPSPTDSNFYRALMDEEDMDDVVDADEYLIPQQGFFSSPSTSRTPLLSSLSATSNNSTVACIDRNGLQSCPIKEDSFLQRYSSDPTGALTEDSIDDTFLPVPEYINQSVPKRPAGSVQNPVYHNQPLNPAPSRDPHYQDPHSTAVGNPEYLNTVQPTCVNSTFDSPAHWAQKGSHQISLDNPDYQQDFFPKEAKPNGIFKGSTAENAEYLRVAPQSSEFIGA
Outline: as §1

Row | SMILES | Degradation H1975 # 25-LTC [1] | Degradation H1975 # 28 DTC [2]
1 | Cc1cc2cc(n1)-c1cnn(C)c1OC[C@H]1C[C@@H](CN3/C(=N/C2=O)Nc2ccc(N4CCN(C5CN(C6CCN(c7cc(F)c([C@H]8CCC(=O)NC8=O)c(F)c7)CC6)C5)CC4)cc23)C1 [Example 137, (R)-3-(4-(4-(3-(4-((7^1s,7^3s,E)-1^1,2^6-dimethyl-3-oxo-5^2,5^3-dihydro-1^1H,5^1H-9-oxa-4-aza-5(2,1)-benzo[d]imidazola-2(2,4)-pyridina-1(4,5)-pyrazola-7(1,3)-cyclobutanacyclononaphane-5^6-yl)piperazin-1-yl)azetidin-1-yl)piperidin-1-yl)-2,6-difluorophenyl)piperidine-2,6-dione] | 77.3 | 80.2
2 | COC[C@H]1CN(c2ccc3c(c2)N2C[C@H]4C[C@@H](COc5c(cnn5C)-c5cc(cc(C)n5)C(=O)/N=C/2N3)C4)CCN1C1CCN(c2ccc(C3CCC(=O)NC3=O)nc2C)CC1 (stereo partly drawn) [Example 24, 3-(5-(4-((R)-4-((7^1s,7^3S,E)-1^1,2^6-dimethyl-3-oxo-5^2,5^3-dihydro-1^1H,5^1H-9-oxa-4-aza-5(2,1)-benzo[d]imidazola-2(2,4)-pyridina-1(4,5)-pyrazola-7(1,3)-cyclobutanacyclononaphane-5^6-yl)-2-(methoxymethyl)piperazin-1-yl)piperidin-1-yl)-6-methylpyridin-2-yl)piperidine-2,6-dione] | 91.7 | 88.0
3 | Cc1cc2cc(n1)-c1cnn(C)c1OC[C@H]1C[C@@H](CN3/C(=N/C2=O)Nc2ccc(N4CCN(CCc5ccc(C6CCC(=O)NC6=O)nc5C)CC4)cc23)C1 (stereo partly drawn) [Example 82, 3-(5-(2-(4-((7^1s,7^3s,E)-1^1,2^6-dimethyl-3-oxo-5^2,5^3-dihydro-1^1H,5^1H-9-oxa-4-aza-5(2,1)-benzo[d]imidazola-2(2,4)-pyridina-1(4,5)-pyrazola-7(1,3)-cyclobutanacyclononaphane-5^6-yl)piperazin-1-yl)ethyl)-6-methylpyridin-2-yl)piperidine-2,6-dione] | 90.3 | 79.5
4 | COC[C@@H]1CN(c2ccc3c(c2)N2C[C@H]4C[C@@H](COc5c(cnn5C)-c5cc(cc(C)n5)C(=O)/N=C/2N3)C4)CCN1C1CCN(c2ccc(C3CCC(=O)NC3=O)nc2C)CC1 (stereo partly drawn) [Example 109] | 90.4 | 81.0
5 | Cc1cc2cc(n1)-c1cnn(C)c1OC[C@H]1C[C@@H](CN3/C(=N/C2=O)Nc2ccc(N4CC5CCC4CN5C4CCN(c5cnc(C6CCC(=O)NC6=O)cc5C)CC4)cc23)C1 (stereo partly drawn) [Example 132, 3-(5-(4-(5-((7^1s,7^3s,E)-1^1,2^6-dimethyl-3-oxo-5^2,5^3-dihydro-1^1H,5^1H-9-oxa-4-aza-5(2,1)-benzo[d]imidazola-2(2,4)-pyridina-1(4,5)-pyrazola-7(1,3)-cyclobutanacyclononaphane-5^6-yl)-2,5-diazabicyclo[2.2.2]octan-2-yl)piperidin-1-yl)-4-methylpyridin-2-yl)piperidine-2,6-dione] | 88.3 | 77.3
6 | Cc1cc2cc(n1)-c1cnn(C)c1OC[C@H]1C[C@@H](CN3/C(=N/C2=O)Nc2ccc(N4CCN(C5CCN(c6cc(F)c([C@H]7CCC(=O)NC7=O)c(F)c6)CC5)CC4=O)cc23)C1 [Example 10, (R)-3-(4-(4-(4-((7^1s,7^3s,E)-1^1,2^6-dimethyl-3-oxo-5^2,5^3-dihydro-1^1H,5^1H-9-oxa-4-aza-5(2,1)-benzo[d]imidazola-2(2,4)-pyridina-1(4,5)-pyrazola-7(1,3)-cyclobutanacyclononaphane-5^6-yl)-3-oxopiperazin-1-yl)piperidin-1-yl)-2,6-difluorophenyl)piperidine-2,6-dione] | 89.8 | 90.6
7 | Cc1cc2cc(n1)-c1cnn(C)c1OC[C@H]1C[C@@H](CN3/C(=N/C2=O)Nc2ccc(N4CCN([C@H]5C[C@@H](Nc6cc(F)c([C@H]7CCC(=O)NC7=O)c(F)c6)C5)CC4)cc23)C1 (single isomer, unassigned) [Example 16] | 64.0 | 71.5
8 | Cc1cc2cc(n1)-c1cnn(C)c1OC[C@H]1C[C@@H](CN3/C(=N/C2=O)Nc2ccc(N4CCN(C5CCN(c6ccc(C7CCC(=O)NC7=O)nc6)CC5)C[C@@H]4C)cc23)C1 (stereo partly drawn) [Example 36, 3-(5-(4-((S)-4-((7^1s,7^3R,E)-1^1,2^6-dimethyl-3-oxo-5^2,5^3-dihydro-1^1H,5^1H-9-oxa-4-aza-5(2,1)-benzo[d]imidazola-2(2,4)-pyridina-1(4,5)-pyrazola-7(1,3)-cyclobutanacyclononaphane-5^6-yl)-3-methylpiperazin-1-yl)piperidin-1-yl)pyridin-2-yl)piperidine-2,6-dione] | 87.7 | 78.0
9 | Cc1cc2cc(n1)-c1cnn(C)c1OC[C@H]1C[C@@H](CN3/C(=N/C2=O)Nc2ccc(N4C[C@@H]5C[C@H]4CN5C4CCN(c5ccc(C6CCC(=O)NC6=O)nc5C)CC4)cc23)C1 (stereo partly drawn) [Example 117, 3-(5-(4-((1S,4S)-5-((7^1s,7^3R,E)-1^1,2^6-dimethyl-3-oxo-5^2,5^3-dihydro-1^1H,5^1H-9-oxa-4-aza-5(2,1)-benzo[d]imidazola-2(2,4)-pyridina-1(4,5)-pyrazola-7(1,3)-cyclobutanacyclononaphane-5^6-yl)-2,5-diazabicyclo[2,2,1]heptan-2-yl)piperidin-1-yl)-6-methylpyridin-2-yl)piperidine-2,6-dione] | 90.6 | 78.2
10 | Cc1cc2cc(n1)-c1cnn(C)c1OC[C@H]1C[C@@H](CN3/C(=N/C2=O)Nc2ccc(N4C5CCC4CN(C4CCN(c6cnc(C7CCC(=O)NC7=O)cc6C)CC4)C5)cc23)C1 (stereo partly drawn) [Example 130, 3-(5-(4-(8-((7^1s,7^3s,E)-1^1,2^6-dimethyl-3-oxo-5^2,5^3-dihydro-1^1H,5^1H-9-oxa-4-aza-5(2,1)-benzo[d]imidazola-2(2,4)-pyridina-1(4,5)-pyrazola-7(1,3)-cyclobutanacyclononaphane-5^6-yl)-3,8-diazabicyclo[3.2.1]octan-3-yl)piperidin-1-yl)-4-methylpyridin-2-yl)piperidine-2,6-dione] | 90.7 | 83.4
11 | Cc1cc2cc(n1)-c1cnn(C)c1OC[C@H]1C[C@@H](CN3/C(=N/C2=O)Nc2ccc(N4CC5(C4)CN(C4CCN(c6ccc(C7CCC(=O)NC7=O)nc6C)CC4)C5)cc23)C1 (stereo partly drawn) [Example 113, 3-(5-(4-(6-((7^1s,7^3s,E)-1^1,2^6-dimethyl-3-oxo-5^2,5^3-dihydro-1^1H,5^1H-9-oxa-4-aza-5(2,1)-benzo[d]imidazola-2(2,4)-pyridina-1(4,5)-pyrazola-7(1,3)-cyclobutanacyclononaphane-5^6-yl)-2,6-diazaspiro[3.3]heptan-2-yl)piperidin-1-yl)-6-methylpyridin-2-yl)piperidine-2,6-dione] | 78.4 | 75.7
12 | Cc1cc2cc(n1)-c1cnn(C)c1OC[C@H]1C[C@@H](CN3/C(=N/C2=O)Nc2ccc(N4CCC5(CCN(C6CCN(c7cc(F)c([C@H]8CCC(=O)NC8=O)c(F)c7)CC6)C5)C4)cc23)C1 (stereo partly drawn) [Example 129, (3R)-3-(4-(4-(7-((7^1s,7^3s,E)-1^1,2^6-dimethyl-3-oxo-5^2,5^3-dihydro-1^1H,5^1H-9-oxa-4-aza-5(2,1)-benzo[d]imidazola-2(2,4)-pyridina-1(4,5)-pyrazola-7(1,3)-cyclobutanacyclononaphane-5^6-yl)-2,7-diazaspiro[4.4]nonan-2-yl)piperidin-1-yl)-2,6-difluorophenyl)piperidine-2,6-dione] | 72.7 | 73.2
13 | Cc1cc2cc(n1)-c1cnn(C)c1OC[C@H]1C[C@@H](CN3/C(=N/C2=O)Nc2ccc(N4CCN([C@@H]5CCN(c6cc(F)c([C@H]7CCC(=O)NC7=O)c(F)c6)C[C@@H]5F)CC4)cc23)C1 [Example 66, (R)-3-(4-((3S,4R)-4-(4-((7^1s,7^3S,E)-1^1,2^6-dimethyl-3-oxo-5^2,5^3-dihydro-1^1H,5^1H-9-oxa-4-aza-5(2,1)-benzo[d]imidazola-2(2,4)-pyridina-1(4,5)-pyrazola-7(1,3)-cyclobutanacyclononaphane-5^6-yl)piperazin-1-yl)-3-fluoropiperidin-1-yl)-2,6-difluorophenyl)piperidine-2,6-dione] | 75.9 | 82.1
14 | COC[C@H]1CN(c2ccc3c(c2)N2C[C@H]4C[C@@H](COc5c(cnn5C)-c5cc(cc(C)n5)C(=O)/N=C/2N3)C4)CCN1C1CCN(c2cnc(C3CCC(=O)NC3=O)cc2C)CC1 (stereo partly drawn) [Example 23, 3-(5-(4-((R)-4-((7^1s,7^3S,E)-1^1,2^6-dimethyl-3-oxo-5^2,5^3-dihydro-1^1H,5^1H-9-oxa-4-aza-5(2,1)-benzo[d]imidazola-2(2,4)-pyridina-1(4,5)-pyrazola-7(1,3)-cyclobutanacyclononaphane-5^6-yl)-2-(methoxymethyl)piperazin-1-yl)piperidin-1-yl)-4-methylpyridin-2-yl)piperidine-2,6-dione] | 91.3 | 87.0
15 | Cc1cc2cc(n1)-c1cnn(C)c1OC[C@H]1C[C@@H](CN3/C(=N/C2=O)Nc2ccc(N4CCN(C5CCN(c6ccc(C7CCC(=O)NC7=O)nc6C)CC5)C[C@@H]4C)cc23)C1 (stereo partly drawn) [Example 33, 3-(5-(4-((S)-4-((7^1s,7^3R,E)-1^1,2^6-dimethyl-3-oxo-5^2,5^3-dihydro-1^1H,5^1H-9-oxa-4-aza-5(2,1)-benzo[d]imidazola-2(2,4)-pyridina-1(4,5)-pyrazola-7(1,3)-cyclobutanacyclononaphane-5^6-yl)-3-methylpiperazin-1-yl)piperidin-1-yl)-6-methylpyridin-2-yl)piperidine-2,6-dione] | 93.3 | 89.4
